Tests used:
C9orf72−/− motor neurons = experiment: Oxidative stress (ROS, CellROX Green) of cultured C9orf72−/− motor neurons exposed to BMAA; assay type: cell-based, mouse; settings: 100 mM BMAA, measured at days 1 and 7, FIG. 7
Protocol: In another experiment, motor neurons from C9orfF72^−/− mice were cultured as described above (see also FIG. 7) and treated with antisense oligonucleotides that selectively target sense strand repeat-containing RNAs and reduce sense-oriented RNA foci without affecting overall C9orf72 expression. Treatment was followed by addition of 100 mM BMAA. Survival and oxidative stress of cultured motor neurons were measured at days 1 and 7. Briefly, oxidative stress of plated embryonic stem cell-derived motor neurons (described above) was assessed by measuring the Reactive Oxygen Species (ROS) levels in the cells using Life Technologies' CellROX Oxidative Stress Green reagent at a final concentration of 5 μM and incubating for 30 minutes at 37° C. After incubation, cells were washed three times with PBS and fluorescence was measured using a standard microplate fluorometry.

C9orf72−/− mice = experiment: ALS-like phenotype in aged C9orf72−/− mice given weekly i.p. BMAA (body weight, motor scores, rotarod, open field, catwalk); assay type: in vivo, mouse; settings: 32-week old C9orf72−/− mice, BMAA 500 mg/kg weekly i.p. for six weeks; FIGS. 6A-6E
Protocol: In another experiment, aged (i.e., 32-week old) wild type and C9orf72^−/− mice were administered weekly i.p. injections of BMAA (500 mg/kg) or PBS (control) for six weeks. Body weight measurements were recorded each week up to 38 weeks starting at day zero (i.e., 32 weeks). Analysis of motor impairment via rotarod, open field locomotor, and catwalk testing (as described above) were also recorded at the start of the experiment (week 0, […]) and every other week up to 38 weeks. Table 6 sets forth the scoring methodology related to motor impairment, tremor and rigidity of animals during testing.

[1] = tested on: cultured wild type motor neurons; experiment: Survival of cultured embryonic stem cell-derived wild type motor neurons treated with BMAA (cell counts, trypan blue); assay type: cell-based, mouse; settings: wild type motor neurons in ESMN with BMAA at 0.1-100 μM; FIG. 4
Protocol: Briefly, mouse embryonic stem cells are cultured and differentiated into motor neurons, during an eight-day period. The first day, previously frozen mouse embryonic stem cells are thawed and added to a 15 mL falcon tube with five mL of embryonic stem cell medium (ES medium: DMEM with 15% FBS, 1% pen/strep., 1% glutamine, 1% non-essential amino acids, 1% nucleosides, 0.1% β-mercaptoethanol, 1% sodium-pyruvate, and LIF at 10000 unit/mL), The tube is then centrifuged for five minutes at 800 rpm. The supernatant is aspirated and the cells suspended in 10 mL of ES medium. The cells are then plated on a T75 flask that is coated with 10 mL of 0.1% gelatin and incubated for 30 minutes at 37° C. to facilitate attachment to the flask bottom. The cells are then incubated overnight. The following day the medium exchanged with fresh medium for survival.
The following day medium is aspirated from the flask. The flask is washed with 10 mL of PBS, and then 5 mL of trypsin is added to detach the cells from the bottom of the flask. The cells are incubated for five minutes at 37° C. Detachment is confirmed by checking the flask under a microscope. […]
After three days embryoid bodies (EB) that form are dissociated. […] The cells are then counted using a Countess automatic cell counter (Life Technologies) and 0.5 to 1 million cells are plated with 2 mL ESMN medium per well in each six well plate. […]

wild type mice = experiment: ALS-like phenotype in wild type mice given weekly i.p. BMAA (body weight, rotarod, open field, catwalk); assay type: in vivo, mouse; settings: BMAA 500 mg/kg weekly i.p. for six weeks, FIGS. 5A-5D
Protocol: In another experiment, wild type mice were administered weekly i.p. injections of BMAA (500 mg/kg) or PBS (control) for six weeks starting at week 1 (FIG. 5A, top). Body weight measurements were recorded each week up to 6 weeks, week 14 and week 18. Analysis of motor impairment via rotarod, open field locomotor, and catwalk testing (as described above) were recorded at the start of the experiment (week 0, 10-weeks old), every other week up to 6 weeks, week 14 and week 18.

## CNC[C@H](N)C(=O)O [BMAA, β-Methylamino-L-alanine]
C9orf72−/− motor neurons
  oxidative stress (Reactive Oxygen Species levels): increased oxidative stress
C9orf72−/− mice
  effect on ALS-like motor phenotype: mildly exacerbates
  effect on increased inactivity and gait abnormalities: does not affect
[1]
  survival of cultured motor neurons (percentage of live neurons to control): kills cultured wild type motor neurons in a dose-dependent manner
Wild type mice
  induction of ALS-like phenotype: did not induce an ALS-like phenotype

Source: patent publication US11547101B2, “Non-human animals having a disruption in a C9ORF72 locus” (Regeneron Pharmaceuticals, Inc., priority 2015, dated 2023)
